One series concerns the target T1, PXR-eGFP (Homo sapiens, UniProt O75469).
T1 construct: expressed in transfected cells; host or cells: COS-1 (lysate used)
Put plainly: Microscale thermophoresis (MST). It is filed as binding. The conditions noted are these: COS-1 cell lysate expressing PXR-eGFP. The method, then:
Microscale Thermophoresis (MST) experiments were conducted using the Monolith NT.115 (201810-BR-N006) (Blue/Red) instrument from NanoTemper Technologies GmbH, Germany. Cell lysates from COS-1 cells expressing PXR-eGFP served as the source of fluorescently labeled PXR, allowing the study of proteins in near-native conditions. COS-1 cells were transfected with 1000 ng of GFP-fused PXR (PXR-eGFP) using Lipofectamine 3000 and lysed 48 h post-transfection with RIPA buffer. To assess MI891 binding to PXR, cell lysates were diluted 2x with MST buffer (10 mM Na-phosphate buffer, pH 7.4, 1 mM MgCl2, 3 mM KCl, 150 mM NaCl, 0.05% Tween-20) to achieve optimal fluorescence levels. A titration series of MI891 (0–30 μM) was incubated with the diluted cell lysates. Measurements were taken in premium-coated capillaries (NanoTemper Technologies GmbH, MO-K025) using an LED source (Blue LED: Ex: 470(±10)/Em: 520(±10) nm) with an excitation wavelength of 470 nm and a 50% maximum stimulation time (MST). The excitation power was […]. Binding affinity was evaluated using the Hill model, with each data point representing mean fraction bound values from three independent experiments. The bound fraction of PXR-eGFP was determined, and fitting was performed using the Hill model method in MO Affinity Analysis v2.3 software (NanoTemper Technologies). […]
(Microscale thermophoresis detects binding through changes in fluorescence in a small temperature gradient.)

The nature of series [1]: Plasma stability, human plasma. The series is classed as in vitro ADME. The settings on record: up to 120 min, read-out: Plasma stability, t1/2 (min), human.
Another series concerns the target T2, LXRα (Homo sapiens, UniProt Q13133).
T2 construct: expressed in transfected cells
Kind of series: LXRα luciferase reporter assay, agonistic and antagonistic setups. The conditions noted are these: prototype ligand GW3965. It is filed as cell-based. As to the method:
For the farnesoid X receptor (FXR) luciferase gene reporter assay, the full-length expression vector was paired with pFXRE-luc luciferase construct. The p1A1-luc construct was used in the aryl hydrocarbon receptor (AhR) assays with pRL-TK for normalization. Gal4-LXR-α/β, and Gal4-PPAR-γ constructs were used with the pGAL4 UAS-luc construct. For the VDR assay, expression vector pSG5-hVDR together with pVDRE-luc constructs was used. Firefly and Renilla luciferase activities were analyzed using a Dual reporter assay (Promega). For the nuclear receptor assays, prototype ligands were used at the following concentrations: Calcitriol for VDR (100 nM), GW3965 for LXRα and LXRβ (10 μM), 6-OCA for FXR (1 μM), fenofibrate for PPARα (10 μM), estradiol for ERα and β (10 μM), rosiglitazone for PPARγ (10 μM), 3-MC for AhR (5 μM), and TCPOBOP for mCAR (10 μM). Detailed descriptions and protocols are detailed in our recent publication. ,
Background: A reporter such as luciferase makes a cellular process visible.

The results in this text go back to article PMC12305494, “Discovery of PXR Antagonist MI891 and PXR Degrader MI1013 and Their Roles in Hepatic Gene Regulation” (Journal of Medicinal Chemistry, 2025).

SMILES strings stand for the structures. A value given as a limit tells only on which side of the number the result lay.

T2 sequence (Q13133 209-447 limits assumed): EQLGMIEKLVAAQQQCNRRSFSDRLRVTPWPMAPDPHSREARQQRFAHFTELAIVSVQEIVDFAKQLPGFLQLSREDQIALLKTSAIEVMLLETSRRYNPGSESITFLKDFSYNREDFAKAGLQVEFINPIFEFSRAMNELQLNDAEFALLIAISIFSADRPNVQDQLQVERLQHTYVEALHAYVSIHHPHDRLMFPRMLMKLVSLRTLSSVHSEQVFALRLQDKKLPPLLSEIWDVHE
T1 sequence (O75469 whole entry): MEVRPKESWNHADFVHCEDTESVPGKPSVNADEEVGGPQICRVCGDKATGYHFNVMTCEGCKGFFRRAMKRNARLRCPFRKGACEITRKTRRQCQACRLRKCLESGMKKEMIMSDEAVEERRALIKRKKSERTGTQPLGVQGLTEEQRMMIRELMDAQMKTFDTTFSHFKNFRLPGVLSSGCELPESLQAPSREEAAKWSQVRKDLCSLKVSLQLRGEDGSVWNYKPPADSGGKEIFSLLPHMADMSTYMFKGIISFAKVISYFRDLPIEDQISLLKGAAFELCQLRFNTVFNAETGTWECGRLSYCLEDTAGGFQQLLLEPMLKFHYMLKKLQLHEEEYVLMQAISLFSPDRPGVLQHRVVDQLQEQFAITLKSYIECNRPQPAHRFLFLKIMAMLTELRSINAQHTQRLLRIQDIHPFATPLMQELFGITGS

As usually defined, the Kd is a measure of binding affinity in units of concentration. Read a low Kd as higher affinity. `NC(=O)c1cc(Cn2cc(-c3c(-c4ccc(Cl)cc4)nc4c(F)cc(F)cn34)nn2)ccc1Cl` [Compound 11, 2-Chloro-5-((4-(2-(4-chlorophenyl)-6,8-difluoroimidazo[1,2-a]pyridin-3-yl)-1H-1,2,3-triazol-1-yl)methyl)-benzamide] registered a Kd at PXR-eGFP of 1700 nM. Moreover, the half-life in series [1] was over 120 min. Also, at LXRα, the “agonistic or antagonistic activity on LXRα” value was “no significant agonistic or antagonistic activities”.
